In brackets after ≈: the same amount, converted by molar mass.
tested on: KB; experiment: Cytotoxicity against human KB cells; assay type: functional, cell-based

In order of rising IC50:
1. C[C@H](C[C@@H](O)[C@@H]1OC1(C)C)[C@@H]1CC[C@]2(C)C3=CC[C@H]4C(C)(C)C(=O)CC[C@]4(C)[C@H]3CC[C@@]12C [NILOTICIN]  8.4 µg/mL (≈ 18.4 µM)
2. C[C@H](C[C@@H](O)[C@@H]1OC1(C)C)[C@@H]1CC[C@]2(C)[C@@]34O[C@H]3C[C@H]3C(C)(C)C(=O)CC[C@]3(C)[C@H]4CC[C@@]12C [DYVARIABILIN C]  8.7 µg/mL (≈ 18.4 µM)
3. C[C@H](C[C@@H](O)[C@@H]1OC1(C)C)[C@@H]1CC[C@]2(C)[C@]34O[C@@H]3C[C@H]3C(C)(C)C(=O)CC[C@]3(C)[C@H]4CC[C@@]12C [DYVARIABILIN B]  10 µg/mL (≈ 21.2 µM)
